Results from US20220204539A1, “CD73 INHIBITORS” (BioArdis LLC, priority 2019, published 2022).
Read-outs that look alike come from different tables or passages of the source.

Molecular target: T1, Recombinant Human 5′-Nucleotidase (CD73) (Homo sapiens, UniProt P21589)
T1 construct: CHO derived CD73 (Trp27-Lys547), with a C-terminal 6-His tag; 6-His (C); purchased R&D 5795-EN; host or cells: CHO
T1 sequence (P21589 27-547): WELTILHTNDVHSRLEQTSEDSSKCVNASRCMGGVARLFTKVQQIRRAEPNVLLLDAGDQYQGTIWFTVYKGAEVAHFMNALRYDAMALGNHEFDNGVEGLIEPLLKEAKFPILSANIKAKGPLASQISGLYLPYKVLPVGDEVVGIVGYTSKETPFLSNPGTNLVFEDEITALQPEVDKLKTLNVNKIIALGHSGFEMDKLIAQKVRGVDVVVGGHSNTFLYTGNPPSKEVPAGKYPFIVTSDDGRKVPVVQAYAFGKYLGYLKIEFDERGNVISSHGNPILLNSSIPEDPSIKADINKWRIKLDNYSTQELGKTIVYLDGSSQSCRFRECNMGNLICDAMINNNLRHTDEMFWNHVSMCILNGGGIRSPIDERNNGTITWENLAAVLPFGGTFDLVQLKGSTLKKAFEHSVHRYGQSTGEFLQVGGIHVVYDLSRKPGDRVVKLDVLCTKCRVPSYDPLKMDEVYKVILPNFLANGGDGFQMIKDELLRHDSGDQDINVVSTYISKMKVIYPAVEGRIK
Assay: CD73 Enzyme Assay
Type: biochemical
From the text: Soluble recombinant CD73 catalyzes the conversion of adenosine monophosphate (AMP) to adenosine and inorganic phosphate. The phosphate detection reagent, PiColorLock™ (Innova Bioscience, Cat #303-0125) is based on the change in absorbance of the dye malachite green in the presence of inorganic phosphate (Pi) and this property can be exploited to measure any enzyme that generates Pi. Recombinant Human 5′-Nucleotidase (CD73) (R&D #5795-EN, CHO derived CD73 (Trp27-Lys547), with a C-terminal 6-His tag) was used in the enzymatic assay. This assay was run in a 384-well plate format (Corning® NBS™ 384 well plates, Cat #3640). The basic assay procedure involves two steps: 1) Enzyme reaction: The CD73 enzyme (R&D #5795-EN) is incubated in the presence or absence of compounds. AMP (sigma, cat #01930) is added to start the […] reaction. 2) Detection step: Gold mix is added to the assay system, then stabilizers are added. After incubation the absorbance of the solution is read at OD 635 nm. The recorded OD signal is proportional to the enzyme activity.
Briefly, 25 μl human CD73 (0.5 nM final concentration) in the enzymatic buffer solutions (20 mM Tris, 25 mM NaCl, 1 mM MgCl2, pH 7.5, 0.005% Tween-20) were mixed with various concentrations of the test compound (dissolved in 100% DMSO). These solutions were incubated for 15 min at 25° C., and subsequently 25 μl AMP (30 μM final concentration) was added to start the reaction. The final reaction mixture of enzyme-substrate-compound was incubated for 20 min at 37° C. Meanwhile ‘Gold mix’ was prepared shortly before use by adding 1/100 vol. of accelerator to the PiColorLock™ Gold reagent. 12 μL/well of the ‘Gold mix’ was added to assay plate containing 50 μL enzyme reaction buffer and incubated at 25° C. for 5 min. 5 μL/well stabilizer was added to the assay plate and incubated at 25° C. for 30 min. The absorbance of the well solutions was measured at 635 nm on a Spark 10M instrument (TECAN).
The percent (%) inhibition at each concentration of a compound was calculated relative to the OD value in the Max and Min control wells contained within each assay plate. The Max control wells contained enzyme and substrate as 0% inhibition, and the M control wells only contained substrate without enzyme as 100% inhibition. The concentrations and percent inhibition values for a test compound are plotted and the concentration of the compound required to achieve 50% inhibition (IC50) was determined with a four-parameter logistic dose response equation.

[1] = human CD73 0.5 nM, AMP 30 μM, PiColorLock phosphate detection, read-out: Potency (IC50, CD73 enzyme assay)

CC(C)OC(=O)OCOP(=O)(CP(=O)(O)OC[C@H]1O[C@@H](c2cnc3c(NC4CCCC4)nc(Cl)nn23)[C@H](O)[C@@H]1O)OCOC(=O)OC(C)C [Compound 70, (((((((2R,3S,4R,5S)-5-(2-chloro-4-(cyclopentylamino)imidazo[2,1-f][1,2,4]triazin-7-yl)-3,4-dihydroxytetrahydrofuran-2-yl)methoxy)(hydroxy)phosphoryl)methyl)phosphoryl)bis(oxy)) bis(methylene) diisopropyl bis(carbonate)]
IC50 [1]: 100 to 999 nM

COP(=O)(CP(=O)(O)O)OC[C@H]1O[C@@H](c2cnc3c(NC4CCCC4)nc(Cl)nn23)[C@H](O)[C@@H]1O (stereo partly drawn) [Compound 71, (((((2R,3S,4R,1S)-5-(2-chloro-4-(cyclopentylamino)imidazo[2,1-f][1,2,4]triazin-7-yl)-3,4-dihydroxytetrahydrofuran-2-yl)methoxy)(methoxy)phosphoryl)methy)phosphonic Acid]
IC50: 10 to 99 nM

COP(=O)(CP(=O)(OC)OC[C@H]1O[C@@H](c2cnc3c(N4CC5CCCC5C4)nc(Cl)nn23)[C@@H](F)[C@@H]1O)OC (stereo partly drawn) [Compound 76, ((2R,3R,4S,5S)-5-(2-chloro-4-(hexahydrocyclopenta[c]pyrrol-2(1H)-yl)imidazo[2,1-f][1,2,4]triazin-7-yl)-4-fluoro-3-hydroxytetrahydrofuran-2-yl)methyl methyl ((dimethoxyphosphoryl)methyl)phosphonate]
IC50 [1]: > 1000 nM

O=P(O)(O)CP(=O)(O)OC[C@H]1O[C@@H](c2cnc3c(NCC4CCC(O)CC4)nc(Cl)nn23)[C@H](O)[C@@H]1O (stereo partly drawn) [Compound 77, (((((2R,3S,4R,1S)-5-(2-chloro-4-(((4-hydroxycyclohexyl)methyl)amino)imidazo[2,1-f][1,2,4]triazin-7-yl)-3,4-dihydroxytetrahydrofuran-2-yl)methoxy)(hydroxy)phosphoryl)methyl)phosphonic Acid]
IC50 [1]: < 10 nM

O=P(O)(O)CP(=O)(O)OC[C@H]1O[C@@H](c2cnc3c(NCC4CCCC(O)C4)nc(Cl)nn23)[C@H](O)[C@@H]1O (stereo partly drawn) [Compound 78, (((((2R,3S,4R,5S)-5-(2-chloro-4-(((3-hydroxycyclohexyl)methyl)amino)imidazo[2,1-f][1,2,4]triazin-7-yl)-3,4-dihydroxytetrahydrofuran-2-yl)methoxy)(hydroxy)phosphoryl)methyl) phosphonic acid]
IC50 [1]: < 10 nM

O=P(O)(O)CP(=O)(O)OC[C@H]1O[C@@H](c2cnc3c(N[C@H]4CC[C@H](N5CCCCC5)C4)nc(Cl)nn23)[C@H](O)[C@@H]1O [Compound 79, (((((2R,3S,4R,1S)-5-(2-chloro-4-(((1S,3S)-3-(piperidin-1-yl)cyclopentyl)amino)imidazo[2,1-f][1,2,4]triazin-7-yl)-3,4-dihydroxytetrahydrofuran-2-yl)methoxy)(hydroxy)phosphoryl)methyl)phosphonic Acid]
IC50 [1]: < 10 nM

C=Cc1nc(NC2CCCC2)c2ncc([C@@H]3O[C@H](COP(=O)(O)CP(=O)(O)O)[C@@H](O)[C@H]3O)n2n1 [Compound 80, (((((2R,3S,4R,1S)-5-(4-(cyclopentylamino)-2-vinylimidazo[2,1-f][1,2,4]triazin-7-yl)-3,4-dihydroxytetrahydrofuran-2-yl)methoxy)(hydroxy)phosphoryl)methyl)phosphonic Acid]
IC50 [1]: 10 to 99 nM

O=P(O)(O)CP(=O)(O)OC[C@H]1O[C@@H](c2coc3c(NCc4ccccc4)ncnc23)[C@H](O)[C@@H]1O [Compound 81, (((((2R,3S,4R,5R)-5-(4-(benzylamino)furo[3,2-d]pyrimidin-7-yl)-3,4-dihydroxytetrahydrofuran-2-yl)methoxyxhydroxy)phosphoryl)methyl)phosphonic acid]
IC50 [1]: 10 to 99 nM
